Results reported in patent publication US20050187150A1, “Structure-based design and synthesis of FGF inhibitors and FGF modulator compounds” (New York University, priority 2001, published 2005).

Columns and labels:
[1] = biological target: T1, FGF2-FGFR1 complexes (Homo sapiens, UniProt P09038+P11362); assay: Size exclusion chromatography of purified 1:1 FGF2:FGFR1 complexes mixed with test compound (dimerization); format: binding; details: for dimerization of FGF:FGFR complex (peaks in size exclusion chromatogram): compound added at 1:1:1 molar ratio FGF2:FGFR1:compound; for dimerization of FGF:FGFR complex (dimer peak D in size exclusion chromatogram): compound added at molar ratio 1:1:0.25 and 1:1:0.5 FGF2:FGFR1:compound, Superdex 200, 25 mM HEPES-NaOH pH 7.5, 150 mM NaCl
T1 construct: made in house
T1 sequence (P11362 142-365): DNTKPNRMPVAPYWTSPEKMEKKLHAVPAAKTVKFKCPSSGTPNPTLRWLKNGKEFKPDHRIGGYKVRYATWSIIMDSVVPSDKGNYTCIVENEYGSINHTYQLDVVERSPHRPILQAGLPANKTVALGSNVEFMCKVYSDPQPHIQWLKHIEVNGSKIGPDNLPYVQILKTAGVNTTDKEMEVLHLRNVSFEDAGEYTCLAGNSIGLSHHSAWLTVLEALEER
T1 sequence (P09038 134-288): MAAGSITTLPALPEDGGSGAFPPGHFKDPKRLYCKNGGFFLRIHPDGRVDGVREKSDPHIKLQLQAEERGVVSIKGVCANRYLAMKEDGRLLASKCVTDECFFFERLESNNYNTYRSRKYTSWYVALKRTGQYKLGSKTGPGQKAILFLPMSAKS
From the text: A construct encoding an extracellular ligand binding portion of the FGFR1 polypeptide set forth in FIG. 1A (SEQ ID NO:1) was expressed in E. coli and refolded […] using established protocols, as previously described by Plotnikov et al. (Cell 2000, 101:413-424). In particular, the soluble FGFR1 polypeptide expressed by this construct, which is referred to here as D23, comprises amino acid residues 142 to 365 of SEQ ID NO:1, which correspond to the immunoglobulin (Ig)-like domains 2 and 3 (D2 and D3, respectively), which are known to confer ligand binding and specificity for the FGFR receptor. However, the D23 polypeptide is missing the Ig-like domain 1 (D1), the acid box and the linker polypeptide sequence between D3 and the transmembrane helix. The D23 polypeptide is therefore similar to a naturally occurring splice variant of FGFR1 that retains full ligand binding capacity (Johnson et al., Mol. Cell. Biol. 1990, 10:4728-4736).
When expressed in E. coli cells, the D23 polypeptide was found entirely in inclusion bodies. The polypeptide was solubilized using standard denaturing reagents and refolded in vitro. Following purification by ion exchange chromatography, the D23 polypeptide was complexed with the FGF2 ligand polypeptide whose amino acid sequence is set forth in FIG. 2A (SEQ ID NO:3) and purified by size exclusion chromatography.
To quantitate dimerization, the purified 1:1 FGF2:FGFR1 complexes were mixed at various molar ratios with SOS and analyzed by size exclusion chromatography according on SUPERDEX 200® (Amersham Pharmacia Biotech.) size exclusion column in 25 mM HEPES-NaOH buffer (pH 7.5) containing 150 mM sodium chloride.
In these experiments, two milligram aliquots of the purified FGF2-FGFR1 complex described, supra, in Example 1 were mixed with suramin and analyzed on a size exclusion column equilibrated with 25 mM HEPES-NaOH buffer (pH 7.5) containing 150 mM NaCl.

[2] = test system: BaF3 cells that stably expressed wild-type FGFR1; assay: Proliferation of BaF3 cells stably expressing FGFR1 in the presence of FGF2; format: cell-based
From the text: This example describes experiments that investigated the ability of SOS to modulate FGF ligand-dependent activation of the FGF receptor in vivo. In particular, an assay is described here that uses a BaF3 cell line which overexpresses FGFR1. This cell line has been previously described and is therefore known in the art (see, e.g., Huang et al., J. Biol. Chem. 1995, 270:5065-5072).
BaF3 cells are a lymphoid cell line, which are dependent on interleukin-3 (IL-3) for growth. […] Accordingly, the growth rate of such transfected cells is useful as a measurement of FGF receptor activity in vivo. Because BaF3 cells express only low amounts of HSPG, soluble heparin must also be present to elicit the FGF-dependent mitogenic response observed in the transfected cells.
For the experiments discussed here, BaF3 cells that stably expressed wild-type FGFR1 (SEQ ID NO:1) were cultured according to standard methods that have been previously described (see, Huang et al., supra). 1×10^4 cells were seeded in triplicate wells and grown in the presence of heparin (3 μM) or, alternatively, in the presence of various concentrations (0.1, 0.5, 1, 5 and 10 μM, respectively) of SOS. The numbers of viable cells in each well were counted daily in duplicate.
Paradoxically, however, FGFR dimers promoted by suramin are signaling incompetent. That is to say, the FGF receptor is not activated in these dimers. […]

[3] = biological target: T1, FGF2-FGFR1 complexes; assay: X-ray crystallography of the dimeric FGF2-FGFR1-SOS ternary complex
Procedure: This example describes x-ray crystallography experiments that better characterize the molecular mechanisms by which SOS may interact with and/or stabilize dimers of FGF-FGFR complexes. In particular, this example describes the crystalization of FGF2-FGFR1 complexes with SOS and the solution of that crystal structure by analyzing x-ray diffraction data.
Crystals of dimeric FGF2-FGFR1-SOS complexes were grown by vapor diffusion at 20° C. using the hanging drop method. 2 μL of protein solution (10 mg/mL in 25 mM HEPES-NaOH (pH 7.5) and 150 mM NaCl) was mixed with an equal volume of crystallization buffer (12-16% Polyethylene glycol 5000, 0.2 M ammonium sulfate and 15% glycerol in 0.1 M HEPES-NaOH (pH 7.5)). The protein solution contained a 1:1:1 stoichiometric ratio of FGF2, and soluble FGFR1 construct described, supra, in Example 1, and SOS.
The crystal belongs to the orthorhombic space group P21 21 21 and has unit cell dimensions of a=64.2 Å, b=122.4 Å and c=219.5 Å. The crystal contains four FGF2-FGFR1-SOS complexes in the asymmetric unit with a solvent content of about 56%.
Diffraction data were collected from a flash-frozen crystal on a CCD detector at beamline X4A at the National Synchrotron Light Source, Brookhaven National Laboratory. The data were processed using DENZO and SCALEPACK (Otwinowski & Minor, Methods Enzymol. 1997, 276:307-326). […]

[4] = test system: FGFR1; assay: FGF receptor autophosphorylation in BaF3 cells over-expressing FGFR (anti-FGFR1 immunoprecipitation, phosphotyrosine immunoblot); format: cell-based; details: five minutes stimulation with FGF1 50 ng/ml plus heparin 10 μg/ml or sulfonated cyclodextrin 5 or 25 μM
Procedure: To verify that the effect of sulfonated β-cyclodextrin observed in FIG. 15A is actually due to activation of the FGF receptor, experiments were conducted that examined the capacity of heparin and β-cyclodextrin to stimulate kinase activity of FGF receptor in living cells. See, Mohammadi et al., Science 1997, 276:955-960 for a detailed description of such experiments.
Briefly, BaF3 cells over-expressing FGFR were stimulated for five minutes with FGF1 ligand (50 ng/ml), heparin (10 μg/ml) and/or sulfonated […] 5 or 25 μM). The cells were then lysed. Their proteins were immunoprecipitated with antibodies to FGFR1, separated by SDS-polyacrylamide gel electrophoresis (PAGE), immunoblotted with antibodies to phosphotyrosine, and detected by autoradiography. […] See, the left-hand and right-hand lanes, respectively, in FIG. 15B.

[5] = test system: ERK-1 and ERK-2; assay: ERK-1/ERK-2 phosphorylation in BaF3 cells over-expressing FGFR1 (immunoblot); format: cell-based; details: co-incubation with FGF1 50 ng/ml; heparin 10 μg/ml or sulfonated β-cyclodextrin 5 and 25 μM
[6] = test system: BaF3 cells that stably express wild-type FGFR1; assay: Proliferation of BaF3 cells stably expressing FGFR1 in the presence of FGF1; format: cell-based; details: FGF1 50 ng/ml; sulfonated β-cyclodextrin 1, 5, 10 and 25 μM
From the text: This examples describes experiments that investigate the ability of sulfonated β-cyclodextrin to function as an effective heparin agonists. In particular, the cell-based assay described in Example 2, supra, is used here to investigate the ability of sulfonated β-cyclodextrin to modulate FGF ligand-dependent activation of the FGF receptor in vivo.
The assay uses a BaF3 cell line which overexpresses FGFR1. This cell line has been previously described and is known in the art (see, e.g., Huang et al., J. Biol. Chem. 1995, 270:5065-5072). BaF3 cells are a lymphoid cell line, which are dependent on interleukin-3 (IL-3) for growth. […] Accordingly, the growth rate of such transfected cells is useful as a measurement of FGF receptor activity in vivo. Ordinarily, because BaF3 cells express only low amounts of HSPG, soluble heparin must also be present to elicit the FGF-dependent mitogenic response observed in the transfected cells.
For the experiments described here, BaF3 cells that stably express wild-type FGFR1 ([…]) were cultured according to standard methods that have been previously described (see, Huang et al., supra). […] The numbers of viable cells in each well were counted daily in duplicate. […]

Compound	dimerization of FGF:FGFR complex (peaks in size exclusion chromatogram) [1]	dimerization of FGF:FGFR complex (dimer peak D in size exclusion chromatogram) [1]	proliferation of BaF3 cells over expressing FGFR1 (daily viable cell counts) ([2]; FGF2 50 ng/ml, SOS 0.1, 0.5, 1, 5 and 10 μM)	hydrogen bonds of the well ordered SOS molecule with FGF2 and both FGFR1 molecules ([3]; crystal structure at 2.6 Å resolution)	effect on FGF-FGFR binding affinity inferred from the crystal structure ([3]; interaction mimics heparin)	heparin-like or SOS-like activity (FGF ligand-dependent activation of FGF receptor, BaF3 cell growth) ([2]; BaF3 cells grown with suramin instead of heparin or SOS, contacted with FGF ligand)	autophosphorylation of the FGF receptor [4]	autophosphorylation of ERK-1 and ERK-2 [5]	proliferation of BaF3 cells over expressing FGFR1 (daily viable cell counts) [6]
O=S(=O)(O)OC[C@H]1O[C@@](COS(=O)(=O)O)(O[C@H]2O[C@H](COS(=O)(=O)O)[C@@H](OS(=O)(=O)O)[C@H](OS(=O)(=O)O)[C@H]2OS(=O)(=O)O)[C@@H](OS(=O)(=O)O)[C@@H]1OS(=O)(=O)O [SOS, sucrose octasulfate]	only a peak corresponding to FGF:FGFR dimers is observed	a third peak corresponding to dimers of the FGF:FGFR complex is observed	supports FGF2 in inducing proliferation of the BaF3 cells over expressing FGFR1 in a dose-dependent manner	13	increases FGF-FGFR binding affinity	–	–	–	–
Cc1ccc(C(=O)Nc2ccc(S(=O)(=O)O)c3cc(S(=O)(=O)O)cc(S(=O)(=O)O)c23)cc1NC(=O)c1cccc(NC(=O)Nc2cccc(C(=O)Nc3cc(C(=O)Nc4ccc(S(=O)(=O)O)c5cc(S(=O)(=O)O)cc(S(=O)(=O)O)c45)ccc3C)c2)c1 [suramin]	only a peak corresponding to the FGF:FGFR dimers is observed	a third peak corresponding to dimers of the FGF:FGFR complex is observed	–	–	–	no heparin-like or SOS-like activity was observed	–	–	–
heparin	–	–	–	–	–	–	stimulated autophosphorylation of the FGF receptor	induces autophosphorylation of ERK-1 and ERK-2	–
sulfonated β-cyclodextrin	–	–	–	–	–	–	results in autophosphorylation of the FGF receptor	induces autophosphorylation of ERK-1 and ERK-2	supports the FGF ligand in inducing proliferation of the BaF3 cells over expressing FGFR1 in a dose-dependent manner
